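Each compound was tested at five concentrations against cells in 96-well plates for 48 hours. Here, GI50 denotes the concentration required for 50% inhibition of growth.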 Calls of active or inactive are those of the source. Rule as the data show it: active = GI50 up to about 1.1 µM and inactive = higher.
Assays:
Test in all cases: DTP human tumour cell line panel, 48 h
[1] = test system: OVCAR-4
[2] = test system: IGROV-1
[3] = test system: MDA-N
[4] = test system: CAKI-1
[5] = test system: OVCAR-3
[6] = test system: HCT-116
[7] = test system: CCRF-CEM
[8] = test system: SR
[9] = test system: 786-0
[10] = test system: SW-620
[11] = test system: HOP-92
[12] = test system: A549
[13] = test system: COLO 205
[14] = test system: UACC-257
[15] = test system: BT-549
[16] = test system: MDA-MB-435
[17] = test system: SK-MEL-5
[18] = test system: UACC-62
[19] = test system: KM12
[20] = test system: M14

| SMILES | GI50 [1] | GI50 [2] | GI50 [3] | GI50 [4] | GI50 [5] | GI50 [6] | GI50 [7] | GI50 [8] | GI50 [9] | GI50 [10] | GI50 [11] | GI50 [12] | GI50 [13] | GI50 [14] | GI50 [15] | GI50 [16] | GI50 [17] | GI50 [18] | GI50 [19] | GI50 [20] |
| --- | --- | --- | --- | --- | --- | --- | --- | --- | --- | --- | --- | --- | --- | --- | --- | --- | --- | --- | --- | --- |
| Nc1nc(Cl)cc(NCC2(CO)COC2)n1 | > 100 µM (inactive) | > 100 µM (inactive) | > 100 µM (inactive) | > 100 µM (inactive) | > 100 µM (inactive) | > 100 µM (inactive) | > 100 µM (inactive) | > 100 µM (inactive) | > 100 µM (inactive) | > 100 µM (inactive) | > 10 µM (inactive) | > 100 µM (inactive) | > 100 µM (inactive) | > 100 µM (inactive) | > 100 µM (inactive) | > 100 µM (inactive) | > 100 µM (inactive) | > 100 µM (inactive) | > 100 µM (inactive) | – |
| CN(C)c1ccc(C(=N/N=C2\C(=O)Nc3ccccc32)c2ccc(N(C)C)cc2)cc1 | 1.94 µM (inactive) | 0.303 µM (active) | 0.0614 µM (active) | 0.39 µM (active) | 0.513 µM (active) | 0.33 µM (active) | 0.935 µM (active) | 0.0262 µM (active) | 0.859 µM (active) | 0.247 µM (active) | 12.8 µM (inactive) | 0.625 µM (active) | 0.358 µM (active) | 24.5 µM (inactive) | 0.938 µM (active) | 0.0214 µM (active) | 0.417 µM (active) | 0.37 µM (active) | 0.278 µM (active) | 0.348 µM (active) |
| NC(C(=O)O)C(O)c1c[nH]cn1 (stereo unspecified) | > 100 µM (inactive) | > 100 µM (inactive) | > 100 µM (inactive) | > 100 µM (inactive) | > 100 µM (inactive) | > 100 µM (inactive) | > 100 µM (inactive) | > 100 µM (inactive) | > 100 µM (inactive) | > 100 µM (inactive) | > 100 µM (inactive) | > 100 µM (inactive) | > 100 µM (inactive) | > 100 µM (inactive) | > 100 µM (inactive) | > 100 µM (inactive) | > 100 µM (inactive) | > 100 µM (inactive) | > 100 µM (inactive) | > 100 µM (inactive) |
| CC(O)C1(CNc2cc(Cl)nc(N)n2)CCCC1 (stereo unspecified) | 75.3 µM (inactive) | > 100 µM (inactive) | > 100 µM (inactive) | > 100 µM (inactive) | > 100 µM (inactive) | > 100 µM (inactive) | > 100 µM (inactive) | > 100 µM (inactive) | > 100 µM (inactive) | > 100 µM (inactive) | 98.9 µM (inactive) | > 100 µM (inactive) | > 100 µM (inactive) | > 100 µM (inactive) | > 100 µM (inactive) | > 100 µM (inactive) | > 100 µM (inactive) | > 100 µM (inactive) | > 100 µM (inactive) | > 100 µM (inactive) |
| Cc1ccc([N+](=O)[O-])cc1S(=O)(=O)Nc1ccc(C2=NN(c3ccc([N+](=O)[O-])cc3[N+](=O)[O-])C(c3cccs3)C2)cc1 (stereo unspecified) | 18.5 µM (inactive) | 16.2 µM (inactive) | 16.2 µM (inactive) | 25.5 µM (inactive) | 16.1 µM (inactive) | 14.9 µM (inactive) | 24.5 µM (inactive) | 21 µM (inactive) | 17.1 µM (inactive) | 35.7 µM (inactive) | 16.1 µM (inactive) | 19.5 µM (inactive) | 23.2 µM (inactive) | 16 µM (inactive) | 20.7 µM (inactive) | 21 µM (inactive) | 11.5 µM (inactive) | – | 21 µM (inactive) | 15 µM (inactive) |
| CCC(C)OC(=O)/C(Br)=C1/OC(=O)c2ccccc2-c2ccccc21 (stereo unspecified) | 62.5 µM (inactive) | > 10 µM (inactive) | 32.6 µM (inactive) | 43.4 µM (inactive) | 27.4 µM (inactive) | 17.6 µM (inactive) | 4.78 µM (inactive) | > 10 µM (inactive) | 48.6 µM (inactive) | 18.1 µM (inactive) | 27.3 µM (inactive) | 36.6 µM (inactive) | 18.3 µM (inactive) | 88.7 µM (inactive) | 18.8 µM (inactive) | 26.9 µM (inactive) | 21.2 µM (inactive) | 19.4 µM (inactive) | 23.8 µM (inactive) | 32.1 µM (inactive) |
| C[C@]12CC[C@H]3[C@@H](CCC4=CC(=O)C=C[C@@]43OC(=O)C(F)(F)F)[C@@H]1CCC2=O | > 100 µM (inactive) | > 100 µM (inactive) | > 100 µM (inactive) | > 100 µM (inactive) | > 100 µM (inactive) | > 34.7 µM (inactive) | > 100 µM (inactive) | > 100 µM (inactive) | > 45.6 µM (inactive) | > 100 µM (inactive) | > 100 µM (inactive) | > 52.6 µM (inactive) | > 100 µM (inactive) | > 100 µM (inactive) | > 100 µM (inactive) | > 100 µM (inactive) | > 100 µM (inactive) | > 85.5 µM (inactive) | > 100 µM (inactive) | > 100 µM (inactive) |
| CCC1(OC(=O)CNC)C(=O)OCc2c1cc1n(c2=O)Cc2cc3ccccc3nc2-1 (stereo unspecified) | 0.0977 µM (active) | 0.0601 µM (active) | 0.0419 µM (active) | < 0.01 µM (active) | 0.0713 µM (active) | 0.015 µM (active) | < 0.01 µM (active) | < 0.01 µM (active) | < 0.01 µM (active) | < 0.01 µM (active) | 0.0491 µM (active) | < 0.01 µM (active) | 0.148 µM (active) | 0.0393 µM (active) | 0.0594 µM (active) | 0.0234 µM (active) | < 0.0125 µM (active) | < 0.01 µM (active) | 0.0685 µM (active) | < 0.0105 µM (active) |
| C/C=C(/C)C(=O)O[C@H]1C(C)=C[C@]23C(=O)[C@@H](C=C(COC(C)=O)[C@@H](O)[C@]12O)[C@H]1[C@@H](C[C@H]3C)[C@@]1(C)OC(=O)/C(C)=C\C | 2.77 µM (inactive) | 3.2 µM (inactive) | 1.17 µM (inactive) | 2.75 µM (inactive) | 3.05 µM (inactive) | 2.14 µM (inactive) | 0.486 µM (active) | 2.67 µM (inactive) | 1.52 µM (inactive) | 2.55 µM (inactive) | 1.25 µM (inactive) | 0.15 µM (active) | 0.0596 µM (active) | 3.63 µM (inactive) | 2.38 µM (inactive) | 2.13 µM (inactive) | 0.307 µM (active) | 2.37 µM (inactive) | 1.32 µM (inactive) | 2.29 µM (inactive) |
| OCC1NC(COC2OC(CO)C(O)C(O)C2O)C(O)C(O)C1O (stereo unspecified) | > 100 µM (inactive) | > 100 µM (inactive) | > 100 µM (inactive) | > 100 µM (inactive) | > 100 µM (inactive) | > 100 µM (inactive) | > 100 µM (inactive) | > 100 µM (inactive) | > 100 µM (inactive) | > 100 µM (inactive) | > 100 µM (inactive) | > 100 µM (inactive) | > 100 µM (inactive) | > 100 µM (inactive) | > 100 µM (inactive) | > 100 µM (inactive) | > 100 µM (inactive) | > 100 µM (inactive) | > 100 µM (inactive) | > 100 µM (inactive) |
| Cc1nc2c(o1)C(=O)c1ccccc1/C2=N/c1ccc(N2CCOCC2)cc1 | 2.99 µM (inactive) | 8.71 µM (inactive) | 1.93 µM (inactive) | 13.2 µM (inactive) | 1.69 µM (inactive) | 3.35 µM (inactive) | 4.57 µM (inactive) | 3.86 µM (inactive) | 22.6 µM (inactive) | 3.89 µM (inactive) | 10.7 µM (inactive) | 6.19 µM (inactive) | 23.7 µM (inactive) | 1.94 µM (inactive) | 2.12 µM (inactive) | 1.94 µM (inactive) | 1.79 µM (inactive) | 2.03 µM (inactive) | 16 µM (inactive) | 1.8 µM (inactive) |
| CC(C)(C)C#CI1OC(=O)c2ccccc21 | 2.72 µM (inactive) | 3.47 µM (inactive) | 4.17 µM (inactive) | 3.11 µM (inactive) | 2.99 µM (inactive) | 2.48 µM (inactive) | 1.37 µM (inactive) | 0.74 µM (active) | 3.37 µM (inactive) | 3.44 µM (inactive) | 1.72 µM (inactive) | 8.49 µM (inactive) | 2.28 µM (inactive) | 6.05 µM (inactive) | 3.16 µM (inactive) | 3.72 µM (inactive) | 6.08 µM (inactive) | 4.08 µM (inactive) | 6.85 µM (inactive) | 3.31 µM (inactive) |
| Cc1[nH]n(C(=N)N)c(=O)c1CCO | > 100 µM (inactive) | > 100 µM (inactive) | > 100 µM (inactive) | > 100 µM (inactive) | > 100 µM (inactive) | > 100 µM (inactive) | > 100 µM (inactive) | 17.1 µM (inactive) | 1.67 µM (inactive) | > 100 µM (inactive) | > 100 µM (inactive) | > 100 µM (inactive) | > 100 µM (inactive) | > 100 µM (inactive) | > 100 µM (inactive) | > 100 µM (inactive) | > 100 µM (inactive) | > 100 µM (inactive) | – | > 100 µM (inactive) |
| C[C@@]1(c2ccccc2)O[C@@H]2C[C@H]3[C@@H]4CCC5=CC(=O)C=C[C@]5(C)[C@@]4(F)[C@@H](O)C[C@]3(C)[C@]2(C(=O)CO)O1 [AMCINAFIDE] | 15 µM (inactive) | 17.7 µM (inactive) | 17 µM (inactive) | 23.3 µM (inactive) | 15 µM (inactive) | 14.6 µM (inactive) | – | 19.3 µM (inactive) | 16.3 µM (inactive) | 21.9 µM (inactive) | 22.3 µM (inactive) | 11.8 µM (inactive) | 14.4 µM (inactive) | 17.6 µM (inactive) | 18.2 µM (inactive) | 18.7 µM (inactive) | 14.9 µM (inactive) | 16.7 µM (inactive) | 16.4 µM (inactive) | 16.1 µM (inactive) |
